Results published in the NIST ThermoML archive (doi:10.1016/j.jct.2005.05.003).

Conditions: Liquid, Vibrating tube method

CO [methanol]
Conditions | mass density [kg/m3]
298.26 K, 235 kPa | 785.98
298.26 K, 5000 kPa | 790.69
298.26 K, 9999 kPa | 795.4
298.26 K, 15013 kPa | 799.88
298.26 K, 19987 kPa | 804.1
298.26 K, 25008 kPa | 808.17
298.26 K, 29997 kPa | 812.04
298.26 K, 34991 kPa | 815.76
298.26 K, 39981 kPa | 819.34
323.22 K, 270 kPa | 762.14
323.22 K, 4990 kPa | 767.53
323.22 K, 9984 kPa | 772.87
323.22 K, 14982 kPa | 777.91
323.22 K, 19989 kPa | 782.69
323.22 K, 24986 kPa | 787.21
323.22 K, 29995 kPa | 791.53
323.22 K, 34987 kPa | 795.64
323.22 K, 39993 kPa | 799.6
348.25 K, 366 kPa | 737.29
348.25 K, 4987 kPa | 743.46
348.25 K, 9986 kPa | 749.65
348.25 K, 14991 kPa | 755.42
348.25 K, 20004 kPa | 760.84
348.25 K, 25020 kPa | 765.94
348.25 K, 30013 kPa | 770.76
348.25 K, 34989 kPa | 775.32
348.25 K, 40000 kPa | 779.7
373.26 K, 534 kPa | 710.55
373.26 K, 4983 kPa | 717.67
373.26 K, 9990 kPa | 724.99
373.26 K, 14998 kPa | 731.69
373.26 K, 19985 kPa | 737.88
373.26 K, 24994 kPa | 743.68
373.26 K, 29997 kPa | 749.13
373.26 K, 35001 kPa | 754.27
373.26 K, 39996 kPa | 759.14
398.28 K, 934 kPa | 680.93
398.28 K, 4984 kPa | 689
398.28 K, 9998 kPa | 697.91
398.28 K, 14986 kPa | 705.88
398.28 K, 19987 kPa | 713.16
398.28 K, 24992 kPa | 719.87
398.28 K, 29991 kPa | 726.11
398.28 K, 35005 kPa | 731.99
398.28 K, 40004 kPa | 737.47
